Data as given in the supplement of paper PMC4862054.

Legend:
Details in all cases: incubation time: 72 h
BT-474 [1] = experiment: normalised response (% of control), CellTox Green; higher = less cell death (100 = DMSO, 0 = benzethonium chloride kill control)
Procedure, shortened: (§1)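 Compound was dispensed into 384-well plates at 5 concentrations in 10-fold steps spanning a 10,000-fold range specific to that compound. Breast cancer cell lines were added as 20 µl suspension and left for 72 h before CellTox Green fluorescence (485/520 nm) and then CellTiter-Glo luminescence, read after 10 min at room temperature. Each reported value is the normalised signal at one concentration, with 0.1 % DMSO set at 100 and a positive kill control at 0 on each plate.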

BT-549 [2] = experiment: as above
Procedure, shortened: as §1

CAL-120 [3] = experiment: as above
Procedure, shortened: as §1

CAL-148 [4] = experiment: as above
Procedure, shortened: as §1

CAL-51 [5] = experiment: as above
Procedure, shortened: as §1

CAL-85-1 [6] = experiment: as above
Procedure, shortened: as §1

DU-4475 [7] = experiment: as above
Procedure, shortened: as §1

HCC1143 [8] = experiment: as above
Procedure, shortened: as §1

HCC1599 [9] = experiment: as above
Procedure, shortened: as §1

HCC1937 [10] = experiment: as above
Procedure, shortened: as §1

HDQ-P1 [11] = experiment: as above
Procedure, shortened: as §1

Hs578T [12] = experiment: as above
Procedure, shortened: as §1

MCF-10A [13] = experiment: as above
Procedure, shortened: as §1

MDA-MB-231 [14] = experiment: as above
Procedure, shortened: as §1

MDA-MB-436 [15] = experiment: as above
Procedure, shortened: as §1

MDA-MB-453 [16] = experiment: as above
Procedure, shortened: as §1

MDA-MB-468 [17] = experiment: as above
Procedure, shortened: as §1

MFM-223 [18] = experiment: as above
Procedure, shortened: as §1

BT-474 [19] = experiment: normalised response (% of control), CellTiter-Glo; higher = more viable cells (100 = DMSO, 0 = benzethonium chloride kill control)
Procedure, shortened: as §1

BT-549 [20] = experiment: as above
Procedure, shortened: as §1

CAL-120 [21] = experiment: as above
Procedure, shortened: as §1

CAL-148 [22] = experiment: as above
Procedure, shortened: as §1

CAL-51 [23] = experiment: as above
Procedure, shortened: as §1

CAL-85-1 [24] = experiment: as above
Procedure, shortened: as §1

DU-4475 [25] = experiment: as above
Procedure, shortened: as §1

HCC1143 [26] = experiment: as above
Procedure, shortened: as §1

HCC1599 [27] = experiment: as above
Procedure, shortened: as §1

HCC1937 [28] = experiment: as above
Procedure, shortened: as §1

HDQ-P1 [29] = experiment: as above
Procedure, shortened: as §1

Hs578T [30] = experiment: as above
Procedure, shortened: as §1

MCF-10A [31] = experiment: as above
Procedure, shortened: as §1

MDA-MB-231 [32] = experiment: as above
Procedure, shortened: as §1

MDA-MB-436 [33] = experiment: as above
Procedure, shortened: as §1

MDA-MB-453 [34] = experiment: as above
Procedure, shortened: as §1

MDA-MB-468 [35] = experiment: as above
Procedure, shortened: as §1

MFM-223 [36] = experiment: as above
Procedure, shortened: as §1

SK-BR-3 = experiment: as above
Procedure, shortened: as §1

Row | Structure (SMILES) | normalised response (BT-474 [1]) [%] | normalised response (BT-549 [2]) [%] | normalised response (CAL-120 [3]) [%] | normalised response (CAL-148 [4]) [%] | normalised response (CAL-51 [5]) [%] | normalised response (CAL-85-1 [6]) [%] | normalised response (DU-4475 [7]) [%] | normalised response (HCC1143 [8]) [%] | normalised response (HCC1599 [9]) [%] | normalised response (HCC1937 [10]) [%] | normalised response (HDQ-P1 [11]) [%] | normalised response (Hs578T [12]) [%] | normalised response (MCF-10A [13]) [%] | normalised response (MDA-MB-231 [14]) [%] | normalised response (MDA-MB-436 [15]) [%] | normalised response (MDA-MB-453 [16]) [%] | normalised response (MDA-MB-468 [17]) [%] | normalised response (MFM-223 [18]) [%] | normalised response (BT-474 [19]) [%] | normalised response (BT-549 [20]) [%] | normalised response (CAL-120 [21]) [%] | normalised response (CAL-148 [22]) [%] | normalised response (CAL-51 [23]) [%] | normalised response (CAL-85-1 [24]) [%] | normalised response (DU-4475 [25]) [%] | normalised response (HCC1143 [26]) [%] | normalised response (HCC1599 [27]) [%] | normalised response (HCC1937 [28]) [%] | normalised response (HDQ-P1 [29]) [%] | normalised response (Hs578T [30]) [%] | normalised response (MCF-10A [31]) [%] | normalised response (MDA-MB-231 [32]) [%] | normalised response (MDA-MB-436 [33]) [%] | normalised response (MDA-MB-453 [34]) [%] | normalised response (MDA-MB-468 [35]) [%] | normalised response (MFM-223 [36]) [%] | normalised response (SK-BR-3) [%]
1 | CC(C)(C)Cn1c(N)nc2ccc(-c3[nH]c(C(C)(C)C)nc3-c3ccc(F)cc3)nc21 (100 nM) | 102 | 101 | 103 | 102 | 96.5 | 112 | 103 | 113 | 98.1 | 105 | 109 | 105 | 99.2 | 72.7 | 98 | 102 | 117 | 82.9 | 102 | 105 | 106 | 100 | 92.9 | 99.5 | 103 | 110 | 102 | 92.8 | 88.5 | 102 | 98.4 | 98.6 | 105 | 101 | 95.8 | 104 | 104
2 | CC[C@H](CC#N)OC(=O)N[C@@H](C)c1cccc(NC(=O)Nc2ccc(-c3cnco3)c(OC)c2)c1 [AVN944] (100 nM) | 73.6 | 102 | 97.7 | 95.8 | 95 | 95.9 | 97.8 | 76.5 | 93.2 | 83 | 83.5 | 98.7 | 67.8 | 85.2 | 90.8 | 70.8 | 73.7 | 93.5 | 86.2 | 67.8 | 93.8 | 94.8 | 83.9 | 81.9 | 97.1 | 92.2 | 82.8 | 90.2 | 85.8 | 111 | 91.9 | 91.3 | 80.1 | 98.2 | 59.9 | 98.2 | 96
3 | CC(C)C[C@H](NC(=O)[C@H](CCc1ccccc1)NC(=O)CN1CCOCC1)C(=O)N[C@@H](Cc1ccccc1)C(=O)N[C@@H](CC(C)C)C(=O)[C@@]1(C)CO1 [Carfilzomib] (10 nM) | 87.4 | 81.9 | 91.2 | 78.6 | 35.9 | 43.5 | 100 | 90.5 | 111 | 48.8 | 96.5 | 69.9 | 100 | 51.9 | 48.3 | 84.6 | -51.7 | 66.1 | 70.3 | 6.23 | 91.6 | 104 | 60.5 | 37.6 | 102 | 44.4 | 104 | 77 | 83.5 | 63.5 | 119 | 78.8 | 23.4 | 40.7 | 0.56 | 8.07 | 19.1
4 | CCc1cnn2c(NCc3ccc[n+]([O-])c3)cc(N3CCCC[C@H]3CCO)nc12 [Dinaciclib] (10 nM) | 92 | 95 | 96.6 | 93.2 | 87.1 | 67.9 | 103 | 93.7 | 92 | 107 | 72.3 | -11 | 107 | 36.4 | 54 | 104 | 82.9 | 93.8 | 67.7 | 68.7 | 88.1 | 101 | 65.7 | 24.4 | 89 | 68.5 | 75.8 | 91.2 | 71.2 | 79.9 | 105 | 28.2 | 53.5 | 94.8 | 90.3 | 85.2 | 37.4
5 | CC(C)C(=O)Nc1ccc([N+](=O)[O-])c(C(F)(F)F)c1 [Flutamide] (100 nM) | 99.8 | 94.1 | 104 | 92.5 | 111 | 89.6 | 99.3 | 68.4 | 96.9 | 57.6 | 105 | 87.2 | 50.2 | 97.2 | 82 | 104 | 124 | 95.8 | 101 | 101 | 98.5 | 100 | 113 | 95 | 104 | 103 | 111 | 94.9 | 98.5 | 98 | 96.8 | 102 | 102 | 109 | 94 | 98 | 95.9
6 | COc1cc2c(Oc3ccc(NC(=O)C4(C(=O)Nc5ccc(F)cc5)CC4)cc3F)ccnc2cc1OCCCN1CCOCC1 [Foretinib] (10 nM) | 86.5 | 95.3 | 91.5 | 105 | 109 | 107 | 102 | 104 | 102 | 97.2 | 76.9 | 104 | 107 | 102 | 79.1 | 84.9 | 139 | 97.2 | 102 | 105 | 102 | 105 | 119 | 100 | 103 | 99.6 | 112 | 94.7 | 96.8 | 99.2 | 99.5 | 97.7 | 104 | 107 | 104 | 103 | 104
7 | COc1cc(Nc2ncc(F)c(Nc3ccc4c(n3)N(COP(=O)(O)O)C(=O)C(C)(C)O4)n2)cc(OC)c1OC [Fostamatinib] (25 nM) | 98.7 | 60.2 | 98.4 | 99.6 | 95 | 106 | 99.6 | 100 | 94.1 | 102 | 104 | 101 | 80.9 | 92.3 | 62.8 | 105 | 118 | 78.7 | 97.3 | 104 | 104 | 88.7 | 83 | 98.5 | 95.6 | 101 | 96 | 99.5 | 108 | 93.4 | 100 | 101 | 99.7 | 93.7 | 94.7 | 91.2 | 91.2
8 | CC[C@@H]1C(=O)N(C)c2cnc(Nc3ccc(C(=O)N[C@H]4CC[C@H](N5CCN(CC6CC6)CC5)CC4)cc3OC)nc2N1C(C)C [Volasertib] (10 nM) | 71.2 | 100 | 91.6 | 86 | 65.5 | 69.5 | 95.3 |  | 91.3 | 53.5 | 87 | 77 |  | 71.8 | 19.6 | 92.4 | 34.3 | 1.2 | 82.6 | 89.8 | 88.5 | 84.4 | 84.2 | 70.4 | 100 | 82 | 106 | 83 | 86.3 | 96.3 | 87.9 | 79.9 | 59.5 | 65.4 | 68.3 | 54.6 | 54.8
